The source of these data is patent US8501732B2, “Aminomethyl quinolone compounds” (Hoffmann-La Roche Inc., priority 2011, dated 2013).

One assay has as its target JNK1 (Homo sapiens (Human), UniProt P45983). Kind of assay: In Vitro JNK1 Assay (TR-FRET, phosphorylation of GST-c-Jun). To be noted: 0.2 nM active JNK1 kinase, 26.7 nM GST-c-Jun, 2 μM ATP, 30 min at room temperature. Type of assay: biochemical. An outline of the steps:
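IC50 derived from percent inhibition across 10 serially diluted concentrations, with TR-FRET detection of phospho-c-Jun via an anti-phospho-c-Jun antibody after EDTA stop. Substrate was GST-c-Jun 1-79, reacted 30 min at room temperature in pH 7.0 HEPES buffer with MgCl2, DTT, vanadate and BSA.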

The subject of assay [1] is phospho(Ser63)-c-jun in HK-2 cells. Nature of the assay: Cell-Based Assay for JNK Inhibitors (in-cell ELISA, phospho(Ser63)-c-jun after TNFα). To be noted: HK-2 cells (human proximal tubule cells), 60 minutes compound, then 10 ng/mL TNFα for 30 minutes. An outline of the steps:
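HK-2 human proximal tubule cells were seeded at 40,000 cells/well, cultured 24 h, then serum-starved 16–24 h before TNFα stimulation with compound. Phospho(Ser63)-c-jun was quantified by in-cell ELISA on fixed, permeabilised cells, using a rabbit phospho-specific primary (overnight, 4 °C) and an HRP-linked anti-rabbit secondary. Absorbance was read at 450 nm.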

JNK1, sequence (P45983 whole entry): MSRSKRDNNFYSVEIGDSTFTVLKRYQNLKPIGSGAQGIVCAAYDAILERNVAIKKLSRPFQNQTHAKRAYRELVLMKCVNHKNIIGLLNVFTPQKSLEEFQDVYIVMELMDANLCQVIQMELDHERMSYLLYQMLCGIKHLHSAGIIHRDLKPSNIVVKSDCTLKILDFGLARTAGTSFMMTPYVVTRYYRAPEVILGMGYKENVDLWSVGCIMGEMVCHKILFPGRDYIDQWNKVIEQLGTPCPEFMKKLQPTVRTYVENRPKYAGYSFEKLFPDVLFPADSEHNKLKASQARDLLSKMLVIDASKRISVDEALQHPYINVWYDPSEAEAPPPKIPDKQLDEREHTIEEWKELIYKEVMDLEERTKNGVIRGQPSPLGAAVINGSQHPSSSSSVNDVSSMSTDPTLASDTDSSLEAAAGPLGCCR

The compound `O=C(NCc1cn(-c2ccccc2)c2cc(Cl)ccc2c1=O)c1ccc(N2CCNCC2)nc1` [Example I-85, N-(7-Chloro-4-oxo-1-phenyl-1,4-dihydro-quinolin-3-ylmethyl)-6-piperazin-1-yl-nicotinamide] displayed an IC50 against JNK1 of 0.11 µM. The compound further yielded an EC50 in assay [1] of 72 µM.
Turning to `COC(=O)c1c(CNC(=O)c2cccc(F)c2)c(=O)c2ccc(Cl)cc2n1-c1ccccc1` [Example I-138, 7-Chloro-3-[(3-fluoro-benzoylamino)-methyl]-4-oxo-1-phenyl-1,4-dihydro-quinoline-2-carboxylic acid methyl ester], the IC50 against JNK1 is 0.013 µM. Moreover, in assay [1], it took 10 µM to reach a half-maximal effect (EC50).
`COC(=O)c1c(CNC(=O)c2ccc(Cl)c(Cl)c2)c(=O)c2ccc(C(F)(F)F)nc2n1-c1ccccc1` [Example I-159, 3-[(3,4-Dichloro-benzoylamino)-methyl]-4-oxo-1-phenyl-7-trifluoromethyl-1,4-dihydro-[1,8]naphthyridine-2-carboxylic acid methyl ester] displayed a concentration for half-maximal inhibition (IC50) against JNK1 of 0.17 µM. Moreover, in assay [1], it took 43 µM to reach a half-maximal effect (EC50).
On JNK1, `COc1ccc(C(=O)NCc2c(C(=O)N(C)C)n(-c3ccccc3)c3cc(Cl)ccc3c2=O)cc1` [Example I-15, 7-Chloro-3-[(4-methoxy-benzoylamino)-methyl]-4-oxo-1-phenyl-1,4-dihydro-quinoline-2-carboxylic acid dimethylamide] returned an IC50 of 0.064 µM. In assay [1], this compound showed an EC50 of 54 µM.
For `COCCNc1ccc(C(=O)NCc2cn(-c3ccccc3)c3cc(Cl)ccc3c2=O)cn1` [Example I-74, N-(7-Chloro-4-oxo-1-phenyl-1,4-dihydro-quinolin-3-ylmethyl)-6-(2-methoxy-ethylamino)-nicotinamide] the same measures were 0.03 µM and 27 µM.
`COc1ccc(C(=O)NCc2cn(-c3ccccc3)c3cc(Cl)ccc3c2=O)cc1OC` [Example I-57, N-(7-Chloro-4-oxo-1-phenyl-1,4-dihydro-quinolin-3-ylmethyl)-3,4-dimethoxy-benzamide]: half-maximal inhibition on JNK1 (IC50) required 0.08 µM. This compound gave an EC50 in assay [1] of 26 µM.
With `COC(=O)c1c(CNC(=O)c2cccc(OC)c2)c(=O)c2ccc(Cl)cc2n1-c1ccccc1` [Example I-135, 7-Chloro-3-[(3-methoxybenzoylamino)-methyl]-4-oxo-1-phenyl-1,4-dihydro-quinoline-2-carboxylic acid methyl ester], on JNK1, it took 0.008 µM to reach half-maximal inhibition (IC50). The compound further registered a half-maximal effective concentration (EC50) in assay [1] of 4.8 µM.
Compound `O=C(NCc1cn(-c2ccccc2)c2cc(Cl)ccc2c1=O)c1ccc(-c2ncn[nH]2)cc1` [Example I-43, N-(7-Chloro-4-oxo-1-phenyl-1,4-dihydro-quinolin-3-ylmethyl)-4-(2H-[1,2,4]triazol-3-yl)-benzamide] returned an IC50 against JNK1 of 0.1 µM. Also, a half-maximal response in assay [1] (EC50) required 100 µM.
For `COc1ccc(C(=O)NCc2cn(-c3ccccc3)c3cc(Cl)ccc3c2=O)cn1` [Example I-35, N-(7-Chloro-4-oxo-1-phenyl-1,4-dihydro-quinolin-3-ylmethyl)-6-methoxy-nicotinamide] the same measures were 0.054 µM and 100 µM.
The corresponding values for `CN1CCN(c2ncc(C(=O)NCc3cn(-c4ccccc4)c4cc(Cl)ccc4c3=O)s2)CC1` [Example I-95, 2-(4-Methyl-piperazin-1-yl)-thiazole-5-carboxylic acid (7-chloro-4-oxo-1-phenyl-1,4-dihydro-quinolin-3-ylmethyl)-amide] are 0.04 µM and 22 µM.
`COC(=O)c1c(CNC(=O)c2ccc(-c3noc(C)n3)cc2)c(=O)c2ccc(Cl)cc2n1-c1ccccc1` [Example I-125, 7-Chloro-3-{[4-(5-methyl-[1,2,4]oxadiazol-3-yl)-benzoylamino]-methyl}-4-oxo-1-phenyl-1,4-dihydro-quinoline-2-carboxylic acid methyl ester] had an IC50 against JNK1 of 0.022 µM. This compound also displayed an EC50 in assay [1] of 18 µM.
Compound `COC(=O)c1c(CNC(=O)c2ccc(-c3csc(C)n3)cc2)c(=O)c2ccc(Cl)cc2n1-c1ccccc1` [Example I-127, 7-Chloro-3-{[4-(2-methyl-thiazol-4-yl)-benzoylamino]-methyl}-4-oxo-1-phenyl-1,4-dihydro-quinoline-2-carboxylic acid methyl ester] returned an IC50 against JNK1 of 0.031 µM. The same compound came in with an EC50 in assay [1] of 38 µM.
Compound `CS(=O)(=O)C1CCN(c2ncc(C(=O)NCc3cn(-c4ccccc4)c4cc(Cl)ccc4c3=O)s2)CC1` [Example I-92, 2-(4-Methanesulfonyl-piperidin-1-yl)-thiazole-5-carboxylic acid (7-chloro-4-oxo-1-phenyl-1,4-dihydro-quinolin-3-ylmethyl)-amide] yielded an IC50 on JNK1 of 0.021 µM. Further, the midpoint of the response in assay [1], the EC50, lay at 26 µM.
Consider `O=C(NCc1cn(-c2ccccc2)c2cc(Cl)ccc2c1=O)c1cnc(N2CCCCC2)s1` [Example I-91, 2-Piperidin-1-yl-thiazole-5-carboxylic acid (7-chloro-4-oxo-1-phenyl-1,4-dihydro-quinolin-3-ylmethyl)-amide], for which the IC50 against JNK1 was 0.016 µM. Moreover, in assay [1], the EC50 came out at 19 µM.
The corresponding values for `O=C(NCc1cn(-c2ccccc2)c2cc(Cl)ccc2c1=O)c1ccc(N2CCS(=O)(=O)CC2)nc1` [Example I-80, N-(7-Chloro-4-oxo-1-phenyl-1,4-dihydro-quinolin-3-ylmethyl)-6-(1,1-dioxo-thiomorpholin-4-yl)-nicotinamide] are 0.056 µM and 12 µM.
In turn, `CN(CCO)c1ccc(C(=O)NCc2cn(-c3ccccc3)c3cc(Cl)ccc3c2=O)cn1` [Example I-66, N-(7-Chloro-4-oxo-1-phenyl-1,4-dihydro-quinolin-3-ylmethyl)-6-[(2-hydroxy-ethyl)-methyl-amino]-nicotinamide] showed an IC50 against JNK1 of 0.019 µM. The compound also came in with an EC50 in assay [1] of 29 µM.
The corresponding values for `O=C(NCc1cn(-c2ccccc2)c2cc(Cl)ccc2c1=O)c1ccnc(N2CCOCC2)c1` [Example I-31, N-(7-Chloro-4-oxo-1-phenyl-1,4-dihydro-quinolin-3-ylmethyl)-2-morpholin-4-yl-isonicotinamide] are 0.031 µM and 30 µM.
`CN1CCCN(c2ccc(C(=O)NCc3cn(-c4ccccc4)c4cc(Cl)ccc4c3=O)cn2)CC1` [Example I-82, N-(7-Chloro-4-oxo-1-phenyl-1,4-dihydro-quinolin-3-ylmethyl)-6-(4-methyl-[1,4]diazepan-1-yl)-nicotinamide] yielded an IC50 at JNK1 of 0.071 µM. Also, the EC50 in assay [1] was 19 µM.
The corresponding values for `CNC(=O)c1ccc(C(=O)NCc2c(C(=O)OC)n(-c3ccccc3)c3cc(Cl)ccc3c2=O)cc1` [Example I-118, 7-Chloro-3-[(4-methylcarbamoyl-benzoylamino)-methyl]-4-oxo-1-phenyl-1,4-dihydro-quinoline-2-carboxylic acid methyl ester] are 0.011 µM and 3.7 µM.
`COC(=O)c1c(CNC(=O)c2ccc(OC)cc2)c(=O)c2ccc(Cl)cc2n1-c1ccccc1` [Example I-134, 7-Chloro-3-[(4-methoxybenzoylamino)-methyl]-4-oxo-1-phenyl-1,4-dihydro-quinoline-2-carboxylic acid methyl ester] showed an IC50 against JNK1 of 0.007 µM. This compound returned an EC50 in assay [1] of 1.9 µM.
